# Assay results reported in patent US9333191B2, “Mast cell stabilizers to prevent or treat laminitis” (WILLOWCROFT PHARM INC., priority 2004, dated 2016).
# Entries after “also recorded” stand apart in the source; their conditions may differ. Where a name gives a salt, the structure may show the parent alone.
# Experiments:
# Bovine Laminitis = assay type: in vivo, Holstein calves
# Description: To test the effectiveness of nedocromil sodium to prevent laminitis in cattle, 4 Holstein calves weighing between 325 and 350 pounds were selected for the study and treated as shown in Table 11.
# Starting with day one through day four, and continuing day six through day seven, calves 1 and 2 received Nedocromil sodium pretreatment (1.5 grams infused through the jugular vein) while calves 3 and 4 received no treatment. On each of days one through four and days six through seven, blood samples were obtained from all four calves. No treatments were administered on days eight through ten. On day eleven, calves 1 and 2 were administered 2 grams of Nedocromil sodium. Shortly thereafter, 3.5 pounds of corn starch and 1.5 pounds of sugar mixed in water along with 6×10^11 lactic acid producing and histamine producing organisms were administered to all four calves by releasing the mixture into the rumen of each animal. The process of administering the carbohydrate plus lactic acid producing and histamine producing organisms is known to induce acidosis in cattle.
# The calves' behavior was observed, blood samples taken, and temperatures measured over the next 72 hours.
# [1] = system: Rattus norvegicus basophilic leukemia cells; assay: Lactic acid-stimulated histamine release from basophilic leukemia cells (GC-MS); assay type: cell-based
# Description: The immortal cell culture line of Rattus norvegicus basophilic leukemia cells was subcultured and incubated at 37° C. overnight. […] After incubation, 50 μL of the supernatant was removed from the cells and stored at −80° C. or derivatized for GC-MS analysis.
# The supernatant was mixed with 135 μl of an acetone reaction solution (ethanol, triethylamine, and 9-methylanthracene) in a 0.5 ml microtube. After mixing for 10 seconds, 55 μl of a chloroform derivatization solution containing […] ethylchloroformate was added and mixed for an additional 10 seconds. Then, 350 μL purified water was added and the two phases allowed to separate for 60 seconds. The organic phase was aspirated and placed into a 2 mL autosampler amber vial with glass inserts and dried with anhydrous sodium sulfate before being capped with GC vial snap caps.
# The organic phase samples were dried and analyzed on an Agilent GC/MS 6890/5975C system with MS Chem Station software. Gas chromatography was carried out using a fused silica DB-WAX precolumn (0.2 m×0.25 mm, dF=0.25 μm), and a fused silica DB-WAX separation column (4 m×0.25 mm, dF=0.25 μm). Ultra high purity He was used as the carrier gas.
# The GC parameters were set as follows: injection time was set to 5 μl using the splitless mode. After 120 seconds the split valve was opened with a 40 mL/minute split flow and front inlet temperature was held at 150° C. The oven temperature was ramped, starting at 60° C. for 2 minutes then increased at 50° C./minute to 160° C., then increased at 20° C./minute to 260° C. and held for 2.5 minutes. The MS detector was maintained at 300° C., with a solvent delay of 7 minutes, ion m/z 192 at 7.0-8.7 minutes, dwell time 100 ms, low-mass resolution; ion m/z 166, m/z 154 at 8.7-11.5 minutes, dwell time per ion 100 ms, low-mass resolution. […]
# Ovine Laminitis = assay: Histological evaluation of treatment in an acute model of ovine laminitis (lactic acid infusion + Compound 48/80); assay type: in vivo; conditions: Group 2: Nedocromil sodium (42 mg/kg) + lactic acid infusion + Compound 48/80 (1 mg/kg); anesthetized sheep; hematoxylin and eosin sections
# Description: Laminitis can be induced in vivo through systemic acidosis. This study initiated laminitis in anesthetized sheep by inducing acidosis for the purpose of measuring the level of inflammation in the hoof vascular bed associated with initiation of laminitis. Adult Suffolk sheep (at least 6 months old) weighing at least 60 kg were obtained for the study. Animals were housed and research procedures were performed according to the standards provided in the Guide for the Care and Use of Laboratory Animals, 7th Edition, Revised 1996, National Academy Press, Washington, DC. During acclimation, sheep were pasture-housed with access to feed, water, and shelter. Sheep were fed a standard diet of hay and alfalfa in addition to pasture feed. One day prior to surgery, each animal was transferred to an indoor facility with single animal runs. […] The runs had automatic watering devices and animals were fed in steel feeders. Animals were acclimated for a minimum of one day prior to surgery. Sheep were fasted approximately 16 hours overnight on the day prior to surgery. Two sheep served as terminal controls after prolonged infusion of lactic acid and the mast cell activator 48/80. Systemic blood pH was lowered to approximately […], the animals euthanized, and the hooves observed histopathologically. […]
smiles,measurement,setting,value
"CCCc1c2oc(C(=O)O)cc(=O)c2cc2c(=O)cc(C(=O)O)n(CC)c12 [Nedocromil sodium, disodium salt of 9-ethyl-6,9-dihydro-4,6-dioxo-10-propyl-4H-pyrano[3,2-g]-quinoline-2,8-dicarboxylic acid]",Toxicity and/or side effects,"Bovine Laminitis; bovine, in vivo",lack of toxicity and/or side effects
same,Protection from lactic acidosis,"Bovine Laminitis; calves 1 and 2, nedocromil sodium 1.5 g via jugular vein on days 1-4 and 6-7, 2 g on day 11 before carbohydrate mixture, observed 72 hours",protected from lactic acidosis
same,Histamine Levels,[1]; Lactic acid + 1 μl nedocromil sodium,15.810
same,Histamine Levels,[1]; Lactic acid + 2 μl nedocromil sodium,14.470
same,Inhibition of histamine release,"[1]; lactic acid-stimulated cells, increasing levels of nedocromil sodium",effective in inhibiting histamine release
same,"Findings (histology of hoof sections, inflammation)",Ovine Laminitis,No inflammation was observed; also recorded: effectively reduced short-term inflammation; also recorded: No significant findings
